This is an account of results in US20260234217A1, “USE OF BMP RECEPTOR ALK1 INHIBITORS IN OSTEOARTHRITIS THERAPIES” (The Regents of the University of California, priority 2023, published 2026).

Data set [1] relates to adult growth plate. Briefly: SOFG histology of proximal tibial growth plate in DMM mice. The following applies: week 8 after DMM surgery. Type of data set: in vivo, mouse. An excerpt: FIG. 10. […] Sagittal sections of the proximal tibial growth plate were stained with Safranin-O/Fast Green (SOFG) to visualize proteoglycan (red) in the growth plate, subchondral bone (top blue), and trabecular bone (bottom blue) at week 8 after DMM or Sham surgery. […] Alk1^Col2 mice underwent DMM surgery (DMM+Alk1^Col2). WT control mice (lacking Col2a1-Cre) underwent sham surgery and received PBS treatment (Sham+PBS). (n=5/group).
Knee joint samples were harvested and fixed in 4% Paraformaldehyde for 3 days, and subsequently decalcified in formic acid (Statlab; 1414-32) for 3 days and embedded in paraffin. Sagittal sections 7 micrometers in thickness were taken and stained using Safranin-O (Sigma-Aldrich; S8884-25G), fast green (Sigma-Aldrich; F7258-25G), and hematoxylin (Fisherbrand; 245-656) using a standard histology protocol. Images were taken with the Olympus BX60 brightfield microscope using a 10× objective lens. Representative sections throughout the medial and lateral portion of side were chosen for histological analysis, resulting in 5 sections being imaged for both portions of the joint.

In data set [2] the test system is osteophytes in the DMM joint. Briefly: Micro-CT total knee osteophyte volume in DMM mice. Type of data set: in vivo, mouse. As for the experimental part: Mice (C57BL/6J) were purchased from The Jackson Laboratory. All mice were housed on a 12-hour light/dark cycle with unrestricted access to standard mouse food and water. The DMM model of injury induced OA was performed on mice at 12 weeks of age by opening the joint capsule and transecting the medial meniscotibial ligament in the right knee, destabilizing the medial meniscus(48). A sham operation was performed on the left knee of each mouse by observing the medial meniscotibial ligament but not transecting it. Mice were administered carprofen 5 mg/kg (Zoetis; 1041283) subcutaneously 30 minutes prior to surgery, immediately post-surgery, and 24 hours post-surgery to minimize pain.
Treatments were initiated either 1 day after DMM surgery once a week for 8 weeks, or 1 month after DMM surgery twice a week for 4 weeks. Mice were sacrificed at 20 weeks of age (2 months after surgery). To understand the level of articular cartilage damage 1 month after DMM surgery, a cohort of mice was sacrificed at 16 weeks old (FIG. 4).
Dissected knee joints underwent Micro-CT analysis using the Skyscan 1172 in vivo μCT scanner (Bruker micro-CT, Kontich, Belgium) at 55 kV and 181 μA, with a resolution of 10 μm. […] Average osteophyte volume was analyzed with Prism 9 Software (GraphPad) using two-way ANOVA and Tukey's multiple comparisons test post-hoc. […]

On to `COc1cc(-c2cc(-c3ccc(N4CCNCC4)cc3)cnc2C)cc(OC)c1OC` [LDN-214117], for which, in data set [1], the “impact on adult growth plate maintenance” value is “no obvious impact”. The “osteophyte volume (MicroCT)” value in data set [2] (applied after a 1-month delay) is “significant reduction in osteophyte volume”; in data set [2] (treated immediately after surgery, compared to vehicle, week 8), “reduced osteophyte volume”.
